Holding throughout (assay type): in vivo
One experiment relates to Thrips tabaci. As to the kind of experiment: Thrips tabaci (onion thrips) sunflower leaf disc spray test. The following applies: Thrips tabaci mixed ages on sunflower leaf discs, 7 days incubation, mortality. How it is done: (§1) These examples illustrate the comparative insecticidal and acaricidal properties of compounds A23 and A24. The tests were performed as follows:
Thrips tabaci (Onion Thrips):
[…] After drying, the leaf discs were infested with an […] population of mixed ages. After an incubation period of 7 days, samples were checked for mortality.

In the next experiment the test system is Diabrotica balteata. In words: Diabrotica balteata (corn root worm) L2 larvae test on artificial diet in 24-well microtiter plate. The following applies: 5 days incubation, larval mortality and growth regulation. How it is done: as §1
Diabrotica balteata (Corn Root Worm):
A 24-well microtiter plate (MTP) with artificial diet was treated with test solutions at an application rate of 12.5 ppm (concentration in well 18 ppm) by pipetting. After drying, the MTP's were infested with L2 larvae (6-10 per well). After an incubation period of 5 days, samples were checked for larval mortality and growth regulation.

In the next experiment the test system is Heliothis virescens. In words: Heliothis virescens (tobacco budworm) egg/larval test on artificial diet in 24-well microtiter plate. The following applies: Heliothis virescens eggs 0-24 h old, 4 days incubation, egg mortality, larval mortality, growth regulation. How it is done:
as §1
Heliothis virescens (Tobacco Budworm):
Eggs (0-24 h old) were placed in 24-well microtiter plate on artificial diet and treated with test solutions at an application rate of 12.5 ppm (concentration in well 18 ppm) by pipetting. After an incubation period of 4 days, samples were checked for egg mortality, larval mortality, and growth regulation.

For `Cc1cc(C2=NC[C@@](c3cc(Cl)cc(Cl)c3)(C(F)(F)F)C2)ccc1C(=O)NC1CS(=O)(=O)C1` [Compound A23, 4-[(3R)-3-(3,5-dichlorophenyl)-3-(trifluoromethyl)-2,4-dihydropyrrol-5-yl]-N-(1,1-dioxothietan-3-yl)-2-methyl-benzamide], the “% Control at 12.5 ppm” value in the experiment on Thrips tabaci, in the experiment on Diabrotica balteata and with Heliothis virescens was 100% throughout. Also, the “% Control at 200 ppm” value in the experiment on Thrips tabaci, in the experiment on Diabrotica balteata and in the experiment with Heliothis virescens was 100% in each case.

Consider `Cc1cc(C2=NC[C@](c3cc(Cl)cc(Cl)c3)(C(F)(F)F)C2)ccc1C(=O)NC1CS(=O)(=O)C1` [Compound A24, 4-[(3S)-3-(3,5-dichlorophenyl)-3-(trifluoromethyl)-2,4-dihydropyrrol-5-yl]-N-(1,1-dioxothietan-3-yl)-2-methyl-benzamide], for which the “% Control at 12.5 ppm” value with Thrips tabaci amounted to 40%; with Diabrotica balteata it was 0%; in the experiment on Heliothis virescens, 50%. Further, the “% Control at 200 ppm” value in the experiment on Thrips tabaci, in the experiment with Diabrotica balteata and in the experiment with Heliothis virescens was 100% each time.

Values taken from patent publication US9233920B2, “Process for the preparation of dihydropyrrole derivatives” (Syngenta Participations AG, priority 2010, dated 2016).
